Experiments:
CDK9/Cyclin T1 = CDK9/Cyclin T1 (Homo sapiens (Human), UniProt P50750); experiment: CDK9 enzyme assay (LANCE ULight TR-FRET kinase assay); type: biochemical; details: 1000 μM ATP, 100 nM ULight MBP, kinase reaction 1 hour
How it was run: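 Human CDK9/Cyclin T1 phosphorylating 100 nM ULight-MBP with 1000 μM ATP in HEPES/MgCl2 buffer, 1 h reaction. Stopped with 20 mM EDTA plus 0.5 nM Eu anti-phospho-MBP antibody, incubated 1 h, read by TR-FRET (ex 320 nm, em 615/665 nm).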

H929 cells = experiment: Cell viability assay (Cell TiterGlo); type: cell-based; details: Homo sapiens, NCI-H929, 24 hours at 37° C., Cell TiterGlo luminescence
Method: The cell viability assay was performed using H929 cells. Cells were seeded in 96-well plates at 10,000 cells/well and, after overnight incubation, treated with compounds in a dose response of 3-fold dilutions from 10 μM to 0.005 μM ([…], 0.1% final DMSO concentration). After 24 hours at 37° C., cell viability was measured using Cell TiterGlo reagent (Promega) with a luminescence reader.

CDK9/Cyclin T1, sequence (P50750 whole entry): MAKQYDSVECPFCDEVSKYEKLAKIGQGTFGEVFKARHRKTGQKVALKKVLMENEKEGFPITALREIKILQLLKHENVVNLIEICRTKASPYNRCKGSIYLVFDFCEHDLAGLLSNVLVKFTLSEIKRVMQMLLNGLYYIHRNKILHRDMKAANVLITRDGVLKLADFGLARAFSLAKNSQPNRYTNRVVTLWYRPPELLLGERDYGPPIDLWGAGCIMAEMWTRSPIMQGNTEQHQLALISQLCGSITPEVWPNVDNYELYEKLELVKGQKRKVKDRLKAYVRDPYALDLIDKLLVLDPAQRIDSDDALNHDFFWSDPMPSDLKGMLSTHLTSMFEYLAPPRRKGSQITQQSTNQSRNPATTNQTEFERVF
CDK9/Cyclin T1, sequence (O60563 whole entry partner): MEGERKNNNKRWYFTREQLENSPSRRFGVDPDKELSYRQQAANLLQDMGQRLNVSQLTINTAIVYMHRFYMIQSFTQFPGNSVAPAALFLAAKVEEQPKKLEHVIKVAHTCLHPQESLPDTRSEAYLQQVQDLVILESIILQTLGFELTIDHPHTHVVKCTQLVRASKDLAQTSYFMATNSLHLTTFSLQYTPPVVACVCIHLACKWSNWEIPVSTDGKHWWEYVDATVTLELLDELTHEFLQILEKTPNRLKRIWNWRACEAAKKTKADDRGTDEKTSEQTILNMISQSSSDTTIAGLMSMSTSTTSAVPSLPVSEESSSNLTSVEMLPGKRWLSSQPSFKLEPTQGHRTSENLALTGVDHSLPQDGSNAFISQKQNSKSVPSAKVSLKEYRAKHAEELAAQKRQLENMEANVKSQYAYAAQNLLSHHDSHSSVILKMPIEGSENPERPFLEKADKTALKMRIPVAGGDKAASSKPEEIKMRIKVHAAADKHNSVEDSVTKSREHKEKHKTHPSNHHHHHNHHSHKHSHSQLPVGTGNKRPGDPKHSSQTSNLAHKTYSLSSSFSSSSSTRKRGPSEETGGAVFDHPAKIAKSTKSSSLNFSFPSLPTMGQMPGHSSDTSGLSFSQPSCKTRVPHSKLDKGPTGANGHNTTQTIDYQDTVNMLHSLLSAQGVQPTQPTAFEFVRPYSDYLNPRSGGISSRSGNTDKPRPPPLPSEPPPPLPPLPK

CN(C)C(=O)CN1CC=C(c2[nH]c3ncc(F)c4c3c2CN(C)c2ccc(F)cc2-4)CC1 [Example 66, 2-[4-(1,10-difluoro-7-methyl-6,7-dihydro-4H-3,4,7-triazadibenzo[cd,f]azulen-5-yl)-3,6-dihydropyridin-1(2H)-yl]-N,N-dimethylacetamide]
IC50 (CDK9/Cyclin T1): 44 nM
IC50 (H929 cells): 10 nM

CN1Cc2c(C3=CCN(CC(=O)O)CC3)[nH]c3ncc(F)c(c23)-c2cc(F)ccc21 [Example 67, [4-(1,10-difluoro-7-methyl-6,7-dihydro-4H-3,4,7-triazadibenzo[cd,f]azulen-5-yl)-3,6-dihydropyridin-1(2H)-yl]acetic acid]
IC50 (CDK9/Cyclin T1): 48 nM
IC50 (H929 cells): 130 nM

COCCS(=O)(=O)N1CC2C=C(c3[nH]c4nccc5c4c3CN(C)c3ccc(F)cc3-5)CC2C1 (centres unmarked) [Example 69, 10-fluoro-5-{2-[(2-methoxyethyl)sulfonyl]-1,2,3,3a,4,6a-hexahydrocyclopenta[c]pyrrol-5-yl}-7-methyl-6,7-dihydro-4H-3,4,7-triazadibenzo[cd,f]azulene]
IC50 (CDK9/Cyclin T1): 80 nM
IC50 (H929 cells): 95 nM

CN1Cc2c(C3=CCN(CC(=O)N4CCC[C@H]4CO)CC3)[nH]c3ncc(F)c(c23)-c2cc(F)ccc21 [Example 70, 2-[4-(1,10-difluoro-7-methyl-6,7-dihydro-4H-3,4,7-triazadibenzo[cd,f]azulen-5-yl)-3,6-dihydropyridin-1(2H)-yl]-1-[(2S)-2-(hydroxymethyl)pyrrolidin-1-yl]ethanone]
IC50 (CDK9/Cyclin T1): 86 nM
IC50 (H929 cells): 5 nM

CN1Cc2c(C3=CCN(CC(=O)N4CC(O)C4)CC3)[nH]c3ncc(F)c(c23)-c2cc(F)ccc21 [Example 72, 2-[4-(1,10-difluoro-7-methyl-6,7-dihydro-4H-3,4,7-triazadibenzo[cd,f]azulen-5-yl)-3,6-dihydropyridin-1(2H)-yl]-1-(3-hydroxyazetidin-1-yl)ethanone]
IC50 (CDK9/Cyclin T1): 79 nM
IC50 (H929 cells): 21 nM

CN1Cc2c(C3=CCN(CC(=O)N4CC[C@H](O)C4)CC3)[nH]c3ncc(F)c(c23)-c2cc(F)ccc21 [Example 73, 2-[4-(1,10-difluoro-7-methyl-6,7-dihydro-4H-3,4,7-triazadibenzo[cd,f]azulen-5-yl)-3,6-dihydropyridin-1(2H)-yl]-1-[(3S)-3-hydroxypyrrolidin-1-yl]ethanone]
IC50 (CDK9/Cyclin T1): 52 nM
IC50 (H929 cells): 20 nM

CN1Cc2c(C3=CCN(CC(=O)N4CC(CO)C4)CC3)[nH]c3ncc(F)c(c23)-c2cc(F)ccc21 [Example 74, 2-[4-(1,10-difluoro-7-methyl-6,7-dihydro-4H-3,4,7-triazadibenzo[cd,f]azulen-5-yl)-3,6-dihydropyridin-1(2H)-yl]-1-[3-(hydroxymethyl)azetidin-1-yl]ethanone]
IC50 (CDK9/Cyclin T1): 89 nM
IC50 (H929 cells): 21 nM

CN1Cc2c(C3=CCN(CC(=O)N4CCC[C@@H]4CO)CC3)[nH]c3ncc(F)c(c23)-c2cc(F)ccc21 [Example 75, 2-[4-(1,10-difluoro-7-methyl-6,7-dihydro-4H-3,4,7-triazadibenzo[cd,f]azulen-5-yl)-3,6-dihydropyridin-1(2H)-yl]-1-[(2R)-2-(hydroxymethyl)pyrrolidin-1-yl]ethanone]
IC50 (CDK9/Cyclin T1): 51 nM
IC50 (H929 cells): 8 nM

CNC(=O)N1CC2C=C(c3[nH]c4nccc5c4c3CN(C)c3ccc(F)cc3-5)CC2C1 (centres unmarked) [Example 76, 5-(10-fluoro-7-methyl-6,7-dihydro-4H-3,4,7-triazadibenzo[cd,f]azulen-5-yl)-N-methyl-3,3a,4,6a-tetrahydrocyclopenta[c]pyrrole-2(1H)-carboxamide]
IC50 (CDK9/Cyclin T1): 41 nM
IC50 (H929 cells): 22 nM

CN(C)C(=O)CN1CC2C=C(c3[nH]c4nccc5c4c3CN(C)c3ccc(F)cc3-5)CC2C1 (centres unmarked) [Example 77, 2-[5-(10-fluoro-7-methyl-6,7-dihydro-4H-3,4,7-triazadibenzo[cd,f]azulen-5-yl)-3,3a,4,6a-tetrahydrocyclopenta[c]pyrrol-2(1H)-yl]-N,N-dimethylacetamide]
IC50 (CDK9/Cyclin T1): 46 nM
IC50 (H929 cells): 78 nM

CN1Cc2c(C3=CC4CN(S(C)(=O)=O)CC4C3)[nH]c3nccc(c23)-c2cc(F)ccc21 (centres unmarked) [Example 78, 10-fluoro-7-methyl-5-[2-(methylsulfonyl)-1,2,3,3a,4,6a-hexahydrocyclopenta[c]pyrrol-5-yl]-6,7-dihydro-4H-3,4,7-triazadibenzo[cd,f]azulene]
IC50 (CDK9/Cyclin T1): 62 nM
IC50 (H929 cells): 30 nM

CN1Cc2c(C3=C[C@H]4CC[C@@H](C3)N4CC(=O)N3CCC[C@H]3CO)[nH]c3nccc(c23)-c2cc(F)ccc21 [Example 79, 2-[(1R,5S)-3-(10-fluoro-7-methyl-6,7-dihydro-4H-3,4,7-triazadibenzo[cd,f]azulen-5-yl)-8-azabicyclo[3.2.1]oct-2-en-8-yl]-1-[(2S)-2-(hydroxymethyl)pyrrolidin-1-yl]ethanone]
IC50 (CDK9/Cyclin T1): 72 nM
IC50 (H929 cells): 49 nM

CN1Cc2c(C3=C[C@H]4CC[C@@H](C3)N4CC(=O)N3CC(O)C3)[nH]c3nccc(c23)-c2cc(F)ccc21 [Example 80, 2-[(1R,5S)-3-(10-fluoro-7-methyl-6,7-dihydro-4H-3,4,7-triazadibenzo[cd,f]azulen-5-yl)-8-azabicyclo[3.2.1]oct-2-en-8-yl]-1-(3-hydroxyazetidin-1-yl)ethanone]
IC50 (CDK9/Cyclin T1): 97 nM
IC50 (H929 cells): 190 nM

CN1Cc2c(-c3ccc(CC(=O)O)cc3)[nH]c3nccc(c23)-c2cc(F)ccc21 [Example 81, [4-(10-fluoro-7-methyl-6,7-dihydro-4H-3,4,7-triazadibenzo[cd,f]azulen-5-yl)phenyl]acetic acid]
IC50 (CDK9/Cyclin T1): 68 nM
IC50 (H929 cells): 790 nM

CN1Cc2c(-c3cccc(CC(=O)O)c3)[nH]c3nccc(c23)-c2cc(F)ccc21 [Example 82, [3-(10-fluoro-7-methyl-6,7-dihydro-4H-3,4,7-triazadibenzo[cd,f]azulen-5-yl)phenyl]acetic acid]
IC50 (CDK9/Cyclin T1): 100 nM
IC50 (H929 cells): 4700 nM

CN(CC(O)CO)C(=O)CN1[C@H]2CC[C@@H]1C=C(c1[nH]c3nccc4c3c1CN(C)c1ccc(F)cc1-4)C2 (stereo partly drawn) [Example 83, N-(2,3-dihydroxypropyl)-2-[(1R,5S)-3-(10-fluoro-7-methyl-6,7-dihydro-4H-3,4,7-triazadibenzo[cd,f]azulen-5-yl)-8-azabicyclo[3.2.1]oct-2-en-8-yl]-N-methylacetamide]
IC50 (CDK9/Cyclin T1): 140 nM
IC50 (H929 cells): 140 nM

CN1Cc2c(C3=CC4CN(CC(=O)N5CC(O)C5)CC4C3)[nH]c3nccc(c23)-c2cc(F)ccc21 (centres unmarked) [Example 84, 2-[5-(10-fluoro-7-methyl-6,7-dihydro-4H-3,4,7-triazadibenzo[cd,f]azulen-5-yl)-3,3a,4,6a-tetrahydrocyclopenta[c]pyrrol-2(1H)-yl]-1-(3-hydroxyazetidin-1-yl)ethanone]
IC50 (CDK9/Cyclin T1): 94 nM
IC50 (H929 cells): 180 nM

CN(CC(O)CO)C(=O)CN1CC2C=C(c3[nH]c4nccc5c4c3CN(C)c3ccc(F)cc3-5)CC2C1 (centres unmarked) [Example 85, N-(2,3-dihydroxypropyl)-2-[5-(10-fluoro-7-methyl-6,7-dihydro-4H-3,4,7-triazadibenzo[cd,f]azulen-5-yl)-3,3a,4,6a-tetrahydrocyclopenta[c]pyrrol-2(1H)-yl]-N-methylacetamide]
IC50 (CDK9/Cyclin T1): 99 nM
IC50 (H929 cells): 250 nM

CN(CCO)C(=O)CN1CC2C=C(c3[nH]c4nccc5c4c3CN(C)c3ccc(F)cc3-5)CC2C1 (centres unmarked) [Example 86, 2-[5-(10-fluoro-7-methyl-6,7-dihydro-4H-3,4,7-triazadibenzo[cd,f]azulen-5-yl)-3,3a,4,6a-tetrahydrocyclopenta[c]pyrrol-2(1H)-yl]-N-(2-hydroxyethyl)-N-methylacetamide]
IC50 (CDK9/Cyclin T1): 43 nM
IC50 (H929 cells): 94 nM

CN1Cc2c(C3=CCCNCC3)[nH]c3nccc(c23)-c2cc(F)ccc21 [Example 87, 10-fluoro-7-methyl-5-(2,3,6,7-tetrahydro-1H-azepin-4-yl)-6,7-dihydro-4H-3,4,7-triazadibenzo[cd,f]azulene]
IC50 (CDK9/Cyclin T1): 90 nM
IC50 (H929 cells): 100 nM

CN(C)C(=O)CN1CCC=C(c2[nH]c3nccc4c3c2CN(C)c2ccc(F)cc2-4)CC1 [Example 88, 2-[4-(10-fluoro-7-methyl-6,7-dihydro-4H-3,4,7-triazadibenzo[cd,f]azulen-5-yl)-2,3,6,7-tetrahydro-1H-azepin-1-yl]-N,N-dimethylacetamide]
IC50 (CDK9/Cyclin T1): 150 nM
IC50 (H929 cells): 150 nM

CN1Cc2c(C3=CCCN(S(C)(=O)=O)CC3)[nH]c3nccc(c23)-c2cc(F)ccc21 [Example 89, 10-fluoro-7-methyl-5-[1-(methylsulfonyl)-2,3,6,7-tetrahydro-1H-azepin-4-yl]-6,7-dihydro-4H-3,4,7-triazadibenzo[cd,f]azulene]
IC50 (CDK9/Cyclin T1): 120 nM
IC50 (H929 cells): 230 nM

CN1Cc2c(C3=CCCN(CC(=O)O)CC3)[nH]c3nccc(c23)-c2cc(F)ccc21 [Example 90, [4-(10-fluoro-7-methyl-6,7-dihydro-4H-3,4,7-triazadibenzo[cd,f]azulen-5-yl)-2,3,6,7-tetrahydro-1H-azepin-1-yl]acetic acid]
IC50 (CDK9/Cyclin T1): 170 nM
IC50 (H929 cells): 1900 nM

CN1Cc2c(C3=CCCN(CC(=O)N4CC(O)C4)CC3)[nH]c3nccc(c23)-c2cc(F)ccc21 [Example 91, 2-[4-(10-fluoro-7-methyl-6,7-dihydro-4H-3,4,7-triazadibenzo[cd,f]azulen-5-yl)-2,3,6,7-tetrahydro-1H-azepin-1-yl]-1-(3-hydroxyazetidin-1-yl)ethanone]
IC50 (CDK9/Cyclin T1): 180 nM
IC50 (H929 cells): 220 nM

CN1Cc2c(C3=CCNCC3(C)C)[nH]c3nccc(c23)-c2cc(F)ccc21 [Example 92, 5-(3,3-dimethyl-1,2,3,6-tetrahydropyridin-4-yl)-10-fluoro-7-methyl-6,7-dihydro-4H-3,4,7-triazadibenzo[cd,f]azulene]
IC50 (CDK9/Cyclin T1): 420 nM
IC50 (H929 cells): 1200 nM

From patent US9328112B2, “Tetracyclic CDK9 kinase inhibitors” (AbbVie Inc., priority 2014, dated 2016)
